Measured values taken from PMC9687798, “Atypical Substrates of the Organic Cation Transporter 1” (Biomolecules, 2022).
Several values for one entry are separate records, joined by “and”; a condition that tells them apart may be missing. Identical values can stand only once.

Tests used:
OCT3 = target: T1, OCT3 (Homo sapiens, UniProt O75751); assay: Cellular uptake ratio, OCT3-overexpressing HEK293 cells vs empty vector; assay type: cell-based; settings: for OCT3 transport category: based on ratio uptake data at 1 µM
T1 construct: expressed in transfected cells; host or cells: HEK293, stably transfected; gift from Dr. Koepsell and Dr. Gorbulev (University of Würzburg)
T1 sequence (O75751 1-556): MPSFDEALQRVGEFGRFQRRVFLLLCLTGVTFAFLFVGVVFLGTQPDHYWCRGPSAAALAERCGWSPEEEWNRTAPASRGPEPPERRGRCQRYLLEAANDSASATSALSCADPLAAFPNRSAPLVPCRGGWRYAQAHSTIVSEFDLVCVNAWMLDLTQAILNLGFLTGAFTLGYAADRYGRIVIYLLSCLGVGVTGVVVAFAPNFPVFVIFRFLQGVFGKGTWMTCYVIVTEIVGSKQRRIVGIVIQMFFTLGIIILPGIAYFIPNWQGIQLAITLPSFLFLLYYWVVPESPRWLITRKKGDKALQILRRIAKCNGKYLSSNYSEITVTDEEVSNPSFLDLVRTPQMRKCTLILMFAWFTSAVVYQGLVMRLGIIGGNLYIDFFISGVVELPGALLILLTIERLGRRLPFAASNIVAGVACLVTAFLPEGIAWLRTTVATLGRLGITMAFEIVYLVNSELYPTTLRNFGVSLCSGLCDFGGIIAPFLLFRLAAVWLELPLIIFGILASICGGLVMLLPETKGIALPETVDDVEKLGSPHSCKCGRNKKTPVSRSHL
How it was run: (§1)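 Flp-In HEK293 cells stably expressing transporter, or empty pcDNA5/FRT vector as control, incubated at 37 °C in HBSS with 10 mM HEPES, pH 7.4, with substrate. Uptake quantified by LC-MS with internal standard and normalised to total protein. Ratio = total uptake in transporter cells divided by that in empty-vector cells.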

wild-type human OCT2 = target: T2, wild-type human OCT2 (Homo sapiens, UniProt O15244); assay: Cellular uptake ratio, OCT2-overexpressing HEK293 cells vs empty vector; assay type: cell-based; settings: for uptake by OCT2 (normalised to empty vector): 1 µM and 100 µM substance; for OCT2 transport category: based on ratio uptake data at 1 µM
T2 sequence (O15244 1-555): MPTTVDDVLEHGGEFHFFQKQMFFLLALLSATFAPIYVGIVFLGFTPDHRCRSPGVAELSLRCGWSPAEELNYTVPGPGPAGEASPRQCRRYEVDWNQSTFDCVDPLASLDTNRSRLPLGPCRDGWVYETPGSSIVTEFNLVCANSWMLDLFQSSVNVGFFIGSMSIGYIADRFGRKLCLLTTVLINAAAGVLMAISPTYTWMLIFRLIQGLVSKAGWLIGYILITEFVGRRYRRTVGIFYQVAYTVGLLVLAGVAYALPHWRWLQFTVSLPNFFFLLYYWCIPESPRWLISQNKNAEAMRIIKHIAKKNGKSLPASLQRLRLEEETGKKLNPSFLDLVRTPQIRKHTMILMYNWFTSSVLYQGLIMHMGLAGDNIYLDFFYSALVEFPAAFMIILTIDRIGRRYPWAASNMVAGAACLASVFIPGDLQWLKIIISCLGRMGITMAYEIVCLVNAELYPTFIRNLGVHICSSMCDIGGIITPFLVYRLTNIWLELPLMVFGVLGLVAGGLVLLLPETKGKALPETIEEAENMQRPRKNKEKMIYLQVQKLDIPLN
How it was run: as §1

human OCT1*1 (wild-type) [1] = target: T3, human OCT1*1 (wild-type) (Homo sapiens, UniProt O15245); assay: Cellular uptake ratio, OCT1-overexpressing HEK293 cells vs empty vector; assay type: cell-based
T3 sequence (O15245 1-554): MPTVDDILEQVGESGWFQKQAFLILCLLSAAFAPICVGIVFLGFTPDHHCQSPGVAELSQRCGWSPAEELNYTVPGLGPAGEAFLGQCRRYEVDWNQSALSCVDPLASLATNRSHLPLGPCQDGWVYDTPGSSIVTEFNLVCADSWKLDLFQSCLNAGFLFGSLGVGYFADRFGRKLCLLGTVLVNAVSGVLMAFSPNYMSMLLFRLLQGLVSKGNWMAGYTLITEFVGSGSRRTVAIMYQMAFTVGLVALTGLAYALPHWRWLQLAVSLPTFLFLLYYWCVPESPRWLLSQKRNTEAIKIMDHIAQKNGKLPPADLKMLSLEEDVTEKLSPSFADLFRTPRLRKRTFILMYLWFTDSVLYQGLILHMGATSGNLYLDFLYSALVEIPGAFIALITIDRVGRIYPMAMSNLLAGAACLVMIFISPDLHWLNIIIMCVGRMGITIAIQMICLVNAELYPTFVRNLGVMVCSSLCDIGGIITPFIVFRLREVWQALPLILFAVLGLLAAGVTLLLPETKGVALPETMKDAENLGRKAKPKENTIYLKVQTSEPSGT
How it was run: as §1

human OCT1*1 (wild-type) [2] = target: T3, human OCT1*1 (wild-type); assay: Concentration-dependent uptake (transport kinetics) in HEK293 cells overexpressing OCT1 wild-type; settings: for OCT1 substrate classification from concentration-dependent uptake: good >5, poor 1–5, non-substrate <1 µL/mg protein/min or uptake not above empty vector; for Clint (±SEM): intrinsic clearance = ratio of Vmax and KM, OCT1 wild-type; for Vmax (±SEM): net uptake (OCT1 minus empty vector), HEK293, 0.1-1000 µM substrate, Michaelis–Menten
[3] = based on ratio uptake data at 1 µM
[4] = based on ratio uptake data at 100 µM (footnote *)

Nc1ccn([C@H]2CC[C@@H](CO)O2)c(=O)n1 [Zalcitabine, zalcitabine]
OCT3 transport category (OCT3): 0 (no transport by OCT1, OCT2, and OCT3 occurred (i.e., no kinetic parameters or uptake ratio <2 without significance)) | uptake by OCT2 (normalised to empty vector) (wild-type human OCT2): cellular uptake by OCT2 was observed | OCT2 transport category (wild-type human OCT2): + (good substrates of OCTs when the intrinsic clearance is between 5–15 or the ratio is 2–10) | OCT1 transport category (human OCT1*1 (wild-type) [1]; [3]): + (good substrates of OCTs when the intrinsic clearance is between 5–15 or the ratio is 2–10) | OCT1 substrate classification from concentration-dependent uptake (human OCT1*1 (wild-type) [2]): poor transport efficiency | Clint (±SEM) (human OCT1*1 (wild-type) [2]): 2.57 ± 0.65 µL/mg Protein/min

COc1cc(Cc2cnc(N)nc2N)cc(OC)c1OC [Trimethoprim, trimethoprim]
OCT3 transport category (OCT3): 0 (no transport by OCT1, OCT2, and OCT3 occurred (i.e., no kinetic parameters or uptake ratio <2 without significance)) | uptake by OCT2 (normalised to empty vector) (wild-type human OCT2): only minimal | OCT2 transport category (wild-type human OCT2): +/− (poor transport with a Clint < 5 or ratio between 1–2 with statistical significance (p < 0.05)) | OCT1 transport category (human OCT1*1 (wild-type) [1]; [3]): + (good substrates of OCTs when the intrinsic clearance is between 5–15 or the ratio is 2–10) | Vmax (±SEM) (human OCT1*1 (wild-type) [2]): 300 ± 16.9 pmol/mg Protein/min

Nc1nc(=O)n([C@@H]2CS[C@H](CO)O2)cc1F [Emtricitabine, emtricitabine]
uptake ratio by OCT3 (normalised to empty vector) (OCT3; 1 µM and 100 µM substance): below 2 | uptake by OCT2 (normalised to empty vector) (wild-type human OCT2): cellular uptake by OCT2 was observed | uptake ratio by OCT1 (normalised to empty vector) (human OCT1*1 (wild-type) [1]; 1 µM and 100 µM substance): around 4 | Clint (±SEM) (human OCT1*1 (wild-type) [2]): 6.15 ± 2.82 µL/mg Protein/min | Clint (±SEM) (human OCT1*1 (wild-type) [2]; listed as emtricitabine): 6.15 µL/mg Protein/min

N=C(N)c1ccc(OCCCCCOc2ccc(C(=N)N)cc2)cc1 [Pentamidine, pentamidine]
OCT3 transport category (OCT3): 0 (no transport by OCT1, OCT2, and OCT3 occurred (i.e., no kinetic parameters or uptake ratio <2 without significance)) | OCT2 transport category (wild-type human OCT2): 0 (no transport by OCT1, OCT2, and OCT3 occurred (i.e., no kinetic parameters or uptake ratio <2 without significance)) | OCT1 transport category (human OCT1*1 (wild-type) [1]; [3]): +/− (poor transport with a Clint < 5 or ratio between 1–2 with statistical significance (p < 0.05)) | OCT1 substrate classification from concentration-dependent uptake (human OCT1*1 (wild-type) [2]): poor substrate of OCT1 | Clint (±SEM) (human OCT1*1 (wild-type) [2]): 1.15 µL/mg Protein/min and 1.15 ± 1.75 µL/mg Protein/min | Vmax (±SEM) (human OCT1*1 (wild-type) [2]): 143 ± 63.1 pmol/mg Protein/min

N[C@@H](Cc1ccc(O)c(O)c1)C(=O)O [Levodopa, levodopa]
OCT3 transport category (OCT3): 0 (no transport by OCT1, OCT2, and OCT3 occurred (i.e., no kinetic parameters or uptake ratio <2 without significance)) | OCT2 transport category (wild-type human OCT2): 0 (no transport by OCT1, OCT2, and OCT3 occurred (i.e., no kinetic parameters or uptake ratio <2 without significance)) | OCT1 transport category (human OCT1*1 (wild-type) [1]; [3]): 0 (no transport by OCT1, OCT2, and OCT3 occurred (i.e., no kinetic parameters or uptake ratio <2 without significance)) | Clint (±SEM) (human OCT1*1 (wild-type) [2]): 13.8 ± 8.6 µL/mg Protein/min | Clint (±SEM) (human OCT1*1 (wild-type) [2]; listed as levodopa): 13.8 µL/mg Protein/min | Vmax (±SEM) (human OCT1*1 (wild-type) [2]): 4993 ± 884 pmol/mg Protein/min

CCCCC[C@H](O)/C=C/[C@@H]1[C@@H](C/C=C\CCCC(=O)O)[C@@H](O)C[C@H]1O [Prostaglandin F2α, prostaglandin F2α]
OCT1 transport category (human OCT1*1 (wild-type) [1]; [4]): + (good substrates of OCTs when the intrinsic clearance is between 5–15 or the ratio is 2–10) | OCT1 substrate classification from concentration-dependent uptake (human OCT1*1 (wild-type) [2]): (poor) substrates of OCT1 | Clint (±SEM) (human OCT1*1 (wild-type) [2]): 1.40 ± 1.09 µL/mg Protein/min | Clint (±SEM) (human OCT1*1 (wild-type) [2]; listed as prostaglandin F2α): 1.4 µL/mg Protein/min | Vmax (±SEM) (human OCT1*1 (wild-type) [2]): 1007 pmol/mg Protein/min

CCCCC[C@H](O)/C=C/[C@H]1[C@H](O)CC(=O)[C@@H]1C/C=C\CCCC(=O)O [Prostaglandin E2, prostaglandin E2]
uptake ratio of prostaglandins by OCT1 wild-type (human OCT1*1 (wild-type) [1]; 1, 10 and 100 µM, 120 s): strongly increased uptake by OCT1 at higher concentrations | OCT1 transport category (human OCT1*1 (wild-type) [1]; [4]): + (good substrates of OCTs when the intrinsic clearance is between 5–15 or the ratio is 2–10) | OCT1 substrate classification from concentration-dependent uptake (human OCT1*1 (wild-type) [2]): (poor) substrates of OCT1 | Clint (±SEM) (human OCT1*1 (wild-type) [2]): 3.50 ± 3.42 µL/mg Protein/min | Clint (±SEM) (human OCT1*1 (wild-type) [2]; listed as prostaglandin E2): 3.5 µL/mg Protein/min | Vmax (±SEM) (human OCT1*1 (wild-type) [2]): 4119 pmol/mg Protein/min
